Experimental data reported in patent publication US20200352947A1, “USE OF SEROTONERGIC DRUGS TO TREAT VIRUS-INDUCED THROMBOCYTOPENIA” (NATIONAL UNIVERSITY OF SINGAPORE, priority 2017, published 2020).

Key:
[1] = tested on: DENV2-infected mice; assay: Platelet counts (thrombocytopenia) in DENV2-infected WT mice; format: in vivo; conditions: mice, 10^6 pfu DENV2 IP; WAY-100135 3 mg/kg, ketanserin 8 mg/kg or sarpogrelate 3 mg/kg; 24 hours post-infection; n=5
Procedure: Platelet counts of DENV2 infected mice. Mice were infected via intraperitoneal route (IP) with 10^6 plaque forming units (pfu) and were given either vehicle (1% DMSO) or ketanserin 8 mg/kg IP. Blood was taken via cheek bleed 24 hours post-infection and platelet counts were measured using an automated hematology analyzer. DENV2 infection induces thrombocytopenia, but ketanserin treatment is able to prevent thrombocytopenia (n=5). Mean values are presented and error bars represent the SEM. P values were determined by Student's unpaired t test; ***P<0.001, ****P<0.0001.
Platelet counts of DENV2 infected mice. Mice were infected IP with 10^6 pfu of DENV2 and were given either vehicle, the 5HT1A antagonist WAY-100135, or either of the 5HT2A antagonists, ketanserin and sarpogrelate. Blood was taken via cheek bleed 24 hours post-infection and platelet counts were measured using an automated hematology analyzer. DENV2 infection induced thrombocytopenia that was able to be prevented through administration of serotonin receptor antagonists (n=5). Mean values are presented and error bars represent the SEM. P values were determined by one-way ANOVA; ***p<0.001, ****P<0.0001.
WT mice were infected via intraperitoneal route (IP) with 10^6 plaque forming units (pfu) of DENV2 and were given either vehicle (1% DMSO) or ketanserin (8 mg/kg) IP. Blood was taken via cheek bleed 24 hours post-infection and platelet counts were measured using an automated hematology analyzer.
One limitation of the experimental protocol in Examples 10 and 11 is that the vehicle used to deliver ketanserin in mice, DMSO, can itself interfere with platelet aggregation [Rosenblum, W. I. & El-Sabban. F. Stroke 13, 35-39 (1982)]. This difference can be observed by comparing the severity of thrombocytopenia in dengue-infected mice between FIGS. 1 and 10. Accordingly, newer serotonin receptor antagonists that are more soluble in saline were tested, to determine whether a similar effect is seen even without the confounding effects of DMSO. Mice were infected IP with 10^6 pfu of DENV2 and were given either vehicle, the 5HT1A antagonist WAY-100135 (3 mg/kg), or one of the 5HT2A antagonists ketanserin (8 mg/kg) or sarpogrelate (3 mg/kg). Blood was taken via cheek bleed 24 hours post-infection and platelet counts were measured using an automated hematology analyzer.

[2] = tested on: DENV2-infected mice; assay: Platelet counts and platelet activation in DENV2-infected mice pretreated with fluoxetine; format: in vivo; conditions: fluoxetine 20 mg/kg/day in drinking water for 2 weeks, then 10^6 pfu DENV2 IP; 24 and 72 hours; n=5
Procedure: Mice were administered fluoxetine (20 mg/kg/day) or vehicle via drinking water for 2 weeks. Mice were then infected with 10^6 pfu of DENV2 intraperitoneally. At 24 and 72 hours, blood was collected and platelet counts were measured. The reduction in platelet counts and increased platelet activation induced by DENV was prevented by fluoxetine treatment (n=5). Mean values are presented and error bars represent the SEM. P values were determined by one-way ANOVA; *P<0.05, **P<0.01, ***P<0.001, ****P<0.0001.
Fluoxetine, an SSRI, prevents the uptake of serotonin into platelets. Activation of platelets by DENV (FIG. 3), will result in the release of stored serotonin, which can act in a positive feedback loop. Mice were treated with fluoxetine (20 mg/kg/day) or vehicle in drinking water for 2 weeks and infected with 10^6 pfu of DENV IP. At 24 and 72 hours, blood was collected and platelet counts were measured. The reduction in platelet counts and increased platelet activation induced by DENV was inhibited by fluoxetine treatment (FIG. 15).

[3] = tested on: human platelets; assay: Platelet activation (CD41/CD62P flow cytometry) in stimulated human whole blood; format: cell-based; conditions: 15 min stimulation; CD41/CD62P flow cytometry; n=4
Procedure: (A) Whole blood from healthy human volunteers was isolated and stimulated with DENV2, serotonin, or DENV2+serotonin for 15 min. Cells were then fixed and stained for platelet markers CD41 and CD62P and analyzed by flow cytometry. DENV raised the activation levels of platelets. […] (B) Human whole blood was stimulated with DENV2, mast cells (MCs) or DENV2+MCs in the presence of vehicle or ketanserin (100 nM or 500 nM) for 15 min prior to assessment of platelet activation. […] Mean values are presented and error bars represent the SEM. P values were determined by one-way ANOVA; *P<0.05, ** P<0.01, ***P<0.001, ****P<0.0001, ns: non-significant.
Additionally, products from DENV-stimulated human mast cells promoted platelet activation, dependent on platelet 5HT2A receptor, since this effect was abolished by ketanserin (FIG. 9B). […] Furthermore, ketanserin is effective in reversing DENV-induced human platelet activation.

[4] = tested on: DENV2-infected Sash mice; assay: Exogenous serotonin in DENV2-infected mast cell-deficient (Sash) mice; format: in vivo; conditions: serotonin 150 mg/kg daily
Procedure: (A) Sash mice were infected with DENV2 and treated with 150 mg/kg of serotonin or vehicle daily. Blood was taken for analysis 3 days post-infection. […] (C) Representative eosin and methylene blue staining of peripheral blood smears day 3 post-infection. Some individual platelets are indicated by arrows. Platelet aggregates are surrounded by a dashed line. Scale bar=25 μm. Means are presented with error bars representing the SEM. P values were determined by Student's unpaired t test; ns: non-significant, **P<0.01, ***P<0.001.

[5] = tested on: DENV2-infected WT mice; assay: Exogenous serotonin in DENV2-infected and uninfected WT mice; format: in vivo; conditions: serotonin 150 mg/kg daily
Procedure: (A) WT mice were infected with DENV2 (1×10^6 pfu i.p.) and treated with 150 mg/kg of serotonin or vehicle daily. […] (B) Blood of DENV infected mice treated with serotonin or vehicle was isolated and stained for platelet marker CD41 and activation marker CD62P and analyzed by flow cytometry. […] (C) Representative peripheral blood smears, day 3 post-infection, show platelet aggregation (dashed lines), which was more visually apparent following exogenous serotonin treatment compared to DENV infection. Some individual platelets are indicated by arrows. Scale bar=25 μm. Mean values are presented and error bars represent the SEM. P values were determined by Student's unpaired t test; *P<0.05, ns: non-significant.
WT mice were infected with DENV and administered exogenous serotonin to determine if there was an increase in platelet activation mediated by serotonin and if this would worsen thrombocytopenia in vivo.

COc1ccccc1N1CCN(C[C@@H](C(=O)NC(C)(C)C)c2ccccc2)CC1 [WAY-100135, (S)-N-tert-butyl-3-(4-(2-methoxyphenyl)-piperazin-1-yl)-2-phenylpropanamide]
platelet counts (DENV2-induced thrombocytopenia) [1]: prevented

CNCCC(Oc1ccc(C(F)(F)F)cc1)c1ccccc1 (stereo not shown) [fluoxetine]
increased platelet activation induced by DENV [2]: inhibited
reduction in platelet counts induced by DENV [2]: inhibited

COc1cccc(CCc2ccccc2OCC(CN(C)C)OC(=O)CCC(=O)O)c1 (stereo not shown) [sarpogrelate, 4-[1-(dimethylamino)-3-[2-[2-(3-methoxyphenyl)ethyl]phenoxy]propan-2-yl]oxy-4-oxobutanoic acid]
platelet counts (DENV2-induced thrombocytopenia) [1]: prevented

NCCc1c[nH]c2ccc(O)cc12 [serotonin]
platelet activation in human whole blood stimulated with DENV2+serotonin [3]: significantly enhanced platelet activation over control and DENV groups
circulating platelet counts ([4]; 3 days post-infection): significantly reduced circulating platelet counts compared to vehicle (mock)-treated animals
platelet activation ([4]; 3 days post-infection, n=5-8): increased platelet activation in infected mice compared to vehicle treated controls
platelet aggregates in peripheral blood films ([4]; day 3 post-infection): increased platelet aggregates
platelet aggregates in peripheral blood films ([5]; DENV2-infected WT mice, day 3 post-infection): platelet aggregates increased
platelet activation (CD41/CD62P) in infected mice ([5]; DENV2-infected WT mice, n=6-12): further increased
platelet counts (thrombocytopenia) in infected mice ([5]; WT mice, DENV2 1×10^6 pfu i.p., 3 days post-infection): worsened thrombocytopenia during DENV infection compared to vehicle-treated mice
platelet activation (CD41/CD62P) in uninfected mice ([5]; uninfected WT mice): did not result in platelet activation in uninfected mice
platelet counts in uninfected mice ([5]; uninfected WT mice): did not affect platelet counts in uninfected WT mice
